Paper PMC11413854, “Reversible Control of Native GluN2B-Containing NMDA Receptors with Visible Light” (ACS Chemical Neuroscience, 2024)
Values joined by “and” are separate entries in the source; they are usually repeats but may differ in a detail not shown here. Equal entries are not always repeated.

Tested on: native NMDA currents of cultured cortical neurons
Test: Whole-cell patch-clamp of NMDA currents in cultured cortical neurons (DIV 6-8), spectral dependence of bound OptoNAM-3
Format: cell-based, mouse
Details: for inhibition of NMDA currents in cortical neurons: 2 µM
Experimental: We then turned to native NMDA currents. We repeated these experiments on cultured cortical neurons at days in vitro [DIV] 6–8, a stage at which GluN2B-containing NMDARs form the major population of neuronal NMDARs.[48] On cortical neurons, 2 μM OptoNAM-3 induced 70% inhibition of NMDA-induced currents in the dark. The lower inhibitory effect of trans-OptoNAM-3 on neurons compared to HEK cells is most likely due to the mixture of NMDAR subtypes expressed in neurons.[48] […] This effect is furthermore partially reversible thanks to the use of 550 nm light.
Mice were housed in the IBENS rodent central facility duly accredited by the French Ministry of Agriculture. All experiments were performed in compliance with French and European regulations on care and protection of laboratory animals (EU Directive 2010/63, French Law 2013–118, February 6, 2013), and were approved by local ethics committees and by the French Ministry of Research and Innovation (authorization numbers #05137.02, APAFIS #28867-2020121814485893). Dissociated cultures of cortical neurons were prepared from mouse embryos at E18 as described previously.[84] After removing meninges, cortices were placed in ice-cold HBSS solution. Cell dissociation was performed individually for cortices of each embryo. Cortices were incubated in 2.5% trypsin at 37 °C for 7 min, rinsed three times with 37 °C phosphate buffer saline, and finally suspended in plating medium (Neurobasal Medium, supplemented with 0.5 mM L-glutamine, 1% B27 supplement, and penicillin/streptomycin). The neurons were further dissociated by trituration, and cells were plated on poly-D-lysine coated coverslips in 24-well culture dishes at a density of 3 × 10^5 cells per well for the excitotoxicity test and that of 1 × 10^5 cells per well for patch clamp experiments. Cultures were incubated at 37 °C in a humidified atmosphere of 5% CO2. Cells were fed by changing 1/2 medium to fresh Neurobasal medium every 4 days. For the excitotoxicity experiments, after 5 days in vitro, growth of non-neuronal cells was halted by a 24 h exposure to FDX ([…] 5-fluoro-2′-deoxyuridine). The cultures were used for experiments after 6 to 14 days in vitro (DIV6–8 for patch clamp experiments and DIV14 for excitotoxicity tests).
Whole-cell patch-clamp recordings on neurons were performed 6 to 8 days after the culturing step (DIV 6–8) using the same recording conditions as for HEK cells. Recordings were performed at a holding potential of −60 mV and at room temperature. Currents were elicited by NMDA (300 μM) and D-serine (50 μM) to specifically activate NMDARs.
OptoNAM-3 was perfused in the dark onto the patched neuron (Figure 5A–C). […] Stopping perfusion ensures that trans-OptoNAM coming from the perfusion tube […] with the wavelength PSS during the illumination procedure.
OptoNAM-3 was perfused in the dark onto the patched neuron (Figures 4G,H and 5F,H). […] Then, wavelengths from 435 to 580 nm were applied and the inhibition recovery was monitored.
For the trans to cis and cis to trans isomerization study in the binding site (Figure 5C,H respectively), we decided to normalize (scale) the inhibition values of OptoNAM-3 at different wavelengths by the inhibition induced by OptoNAM-3 at 365 nm and in the dark since these two conditions represent respectively the minimum and maximum of the inhibition. We followed this equation: [drawing 2] where m ∈ [r365,rdark] is the measurement (inhibition) to be scaled, r365 and rdark correspond to the minimum (365 nm state inhibition) and maximum (dark state inhibition) of the measurement, respectively, and t365 and tdark represent the minimum and maximum of the range (OptoNAM-3 365 nm PSS and dark PSS mean inhibition). To reduce the decreasing effect of normalization onto SEM, the SEMs represented in the figures were calculated with the data injected in the first part of the equation ( [drawing 3] ). […]

Compound: c1ccc(/N=N/c2ccc(CCNc3ccncc3)cc2)cc1 [OptoNAM-3, (E)-N-(4-(Phenyldiazenyl)phenethyl)pyridin-4-amine]
- inhibition of NMDA currents in cortical neurons (365 nm irradiation on the cell (Fig 5C)): 27% ± 2%
- inhibition of NMDA currents in cortical neurons (550 nm illumination from UV state (Fig 4H)): 52% ± 3% and 52.150%
- inhibition of NMDA currents in cortical neurons (550 nm post 365 nm illumination (Fig 5H)): 55% ± 4%
- inhibition of NMDA currents in cortical neurons (dark, NMDA 300 µM + D-serine 50 µM): 70% ± 3% and 70.580%
- inhibition of NMDA currents in cortical neurons (under 365 nm illumination (Fig 4H)): 25% ± 4% and 25.090%
- proportion of cis isomer, bound OptoNAM-3 365 nm PSS (365 nm on the cell, calculated from inhibition): ~90%
- proportion of cis isomer, bound OptoNAM-3 (460 nm light from dark state, calculated from inhibition): ~68%
- trans-to-cis isomerization in the binding site (550 and 580 nm applied from the dark state): did not induce visible trans-to-cis isomerization
- % Inhibition (normalized), mean (Figure 5C series (from dark PSS), 365 nm): 27.607%
- % Inhibition (normalized), mean (Figure 5C series (from dark PSS), 435 nm): 44.741%
- % Inhibition (normalized), mean (Figure 5C series (from dark PSS), 460 nm): 50.648%
- % Inhibition (normalized), mean (Figure 5C series (from dark PSS), 490 nm): 64.437%
- % Inhibition (normalized), mean (Figure 5C series (from dark PSS), 525 nm): 71.178%
- % Inhibition (normalized), mean (Figure 5C series (from dark PSS), 550 nm): 73.370%
- % Inhibition (normalized), mean (Figure 5C series (from dark PSS), 580 nm): 73.446%
- % Inhibition (normalized), mean (Figure 5C series, dark): 73.585%
- % Inhibition (normalized), mean (Figure 5H series (from 365 nm PSS), 365 nm): 27.795%
- % Inhibition (normalized), mean (Figure 5H series (from 365 nm PSS), 435 nm): 27.982%
- % Inhibition (normalized), mean (Figure 5H series (from 365 nm PSS), 460 nm): 29.032%
- % Inhibition (normalized), mean (Figure 5H series (from 365 nm PSS), 490 nm): 44.081%
- % Inhibition (normalized), mean (Figure 5H series (from 365 nm PSS), 525 nm): 43.503%
- % Inhibition (normalized), mean (Figure 5H series (from 365 nm PSS), 550 nm): 54.910%
- % Inhibition (normalized), mean (Figure 5H series (from 365 nm PSS), 580 nm): 47.001%
- % Inhibition (normalized), mean (Figure 5H series, dark): 73.111%
- proportion of trans isomer, bound OptoNAM-3 (at 365, 435 and 460 nm post 365 nm illumination, calculated from inhibition): ~10%
